Structures are written as SMILES.

This note sets out measurements from patent publication EP2132185B1, “PYRIMIDINYL-PIPERAZINES USEFUL AS DOPAMINE D3/D2 RECEPTOR LIGANDS” (Richter Gedeon Nyrt., priority 2007, dated 2008).

Data set [1] addresses T1, D2 receptor (Rattus norvegicus, UniProt P61169).
T1 construct: on rat brain striatal membrane preparation; from tissue; host or cells: rat brain striatum membranes
The data set can be described thus: D2 receptor binding ([3H]spiperone, rat brain striatal membrane preparation). Conditions: for Ki: rat brain striatal membrane preparation, [3H]spiperone.
Description: Non-specific binding was determined in the presence of 1 µM (+) butaclamol.

The test system of data set [2] is male Wistar rats. Briefly: Amphetamine-induced hypermotility. Format: in vivo. Conditions: Rattus norvegicus, 1 h, oral administration one hour before d-amphetamine 0.5 mg/kg sc., read-out: Inhibition of amphetamine-induced hypermotility (ED50, mg/kg). How it is done: 4. Amphetamine-Induced Hypermotility
One hour after the oral administration of doses of the test compound or vehicle, male Wistar rats were subcutaneously treated with d-amphetamine (0.5 mg/kg, sc.) and were individually placed in activity cages for one hour. Locomotor activity was measured in a four-channel activity monitor equipped with infrared photobeams Horizontal movement was determined as the number of beam interruptions. Mean ± SE of horizontal activity data of each group was calculated. Percent inhibition of amphetamine-induced increase in locomotion was calculated for each dose of the tested compound. The ED-50 value was determined by linear regression fitted to the dose-response plot.

Data set [3] deals with male Wistar rats. Briefly: Catalepsy test. The conditions noted are these: for Catalepsy (MED, mg/kg): oral treatment, rats, minimum effective (cataleptic) dose. It is filed as in vivo, rat.
Description: Thirty minutes after the oral treatment with the test compounds male Wistar rats weighing 200-220 g (n=10/group) were placed in extra-ordinary position: placing both forepaws of the rat on a 10 cm high podium. […] The frequency of cataleptic animals was determined at one, two, three, four and five hours after the treatment. Minimum effective (cataleptic) dose was defined as the dose causing catalepsy at least at two readings (i.e. either at two time points in the same animal or in two different animals at any of the time points).
Data set [4] addresses Alpha-1 receptor. The data set can be described thus: Alpha-1 receptor binding ([3H]-prazosine, rat cortical membrane preparation). The conditions noted are these: for Ki: rat cortical membrane preparation, [3H]-prazosine, read-out: α-1 Ki.
Description: The non-specific binding was determined in the presence of 10 µM phentolamine.
In data set [5] the test system is male Wistar rats. The data set can be described thus: Scopolamine-induced learning disturbance in the water-labyrinth. It is filed as in vivo, rat. The conditions noted are these: scopolamine 3 mg/kg ip., negative values mean further impairment. As for the experimental part: 6. Scopolamine-Induced Learning Disturbance in the Water-Labyrinth
The learning process of rats was assessed in a 3-choice point water-labyrinth system. The number of directional turning errors was recorded in three daily trials for three experimental days. Male Wistar rats weighing 180-200 g (n=10 per groups) were treated orally with vehicle or the test compounds 1 hour before each daily session. Scopolamine (3 mg/kg ip.) as amnestic agent was injected 30 minutes prior to the first daily trial. Mean ± SE of errors committed in all the trials was calculated in each group. Percent inhibition of scopolamine-induced increase in the number of errors was calculated for each dose of the tested compound.

Data set [6] has as its target T2, rat recombinant D3 receptors (Rattus norvegicus, UniProt P19020).
T2 construct: purchased Perkin-Elmer 6110139; host or cells: Sf9 cells
Briefly: D3 receptor binding ([3H]spiperone). Conditions: rat recombinant D3 receptors expressed in Sf9 cells.

T1 sequence (P61169 whole entry): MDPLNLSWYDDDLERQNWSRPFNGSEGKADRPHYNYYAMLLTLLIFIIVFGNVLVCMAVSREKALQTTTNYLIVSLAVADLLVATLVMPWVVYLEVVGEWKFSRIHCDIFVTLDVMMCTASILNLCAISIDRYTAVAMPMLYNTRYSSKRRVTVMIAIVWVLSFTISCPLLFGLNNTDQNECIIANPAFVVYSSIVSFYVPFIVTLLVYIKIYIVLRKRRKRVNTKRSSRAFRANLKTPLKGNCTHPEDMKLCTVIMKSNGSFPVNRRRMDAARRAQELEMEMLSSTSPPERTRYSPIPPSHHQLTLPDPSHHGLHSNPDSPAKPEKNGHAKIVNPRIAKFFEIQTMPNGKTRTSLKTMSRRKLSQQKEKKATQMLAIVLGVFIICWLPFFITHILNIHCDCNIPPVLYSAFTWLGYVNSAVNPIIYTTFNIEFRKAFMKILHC
T2 sequence (P19020 whole entry): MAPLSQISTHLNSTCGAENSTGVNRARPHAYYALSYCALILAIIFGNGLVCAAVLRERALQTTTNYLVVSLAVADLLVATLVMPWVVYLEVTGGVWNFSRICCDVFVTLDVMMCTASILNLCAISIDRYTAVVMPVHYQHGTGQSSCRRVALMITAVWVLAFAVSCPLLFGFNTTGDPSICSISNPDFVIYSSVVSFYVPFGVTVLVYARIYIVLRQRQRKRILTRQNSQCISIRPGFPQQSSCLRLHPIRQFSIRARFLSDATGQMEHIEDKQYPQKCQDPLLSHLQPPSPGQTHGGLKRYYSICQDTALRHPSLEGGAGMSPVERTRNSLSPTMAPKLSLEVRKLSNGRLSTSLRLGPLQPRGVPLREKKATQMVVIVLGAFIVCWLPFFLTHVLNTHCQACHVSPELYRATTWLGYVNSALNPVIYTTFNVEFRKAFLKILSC

A word on the Ki: it is the equilibrium dissociation constant of an inhibitor or competing ligand from its target. By % inhibition is commonly meant the change of the read-out against control, counted positive when it falls. As to `CNc1nc(Cl)c(Cl)c(N2CCN(CC[C@H]3CC[C@H](NC(C)=O)CC3)CC2)n1` [Compound 1, Tran-N-(4-{2-[4-(5,6-dichloro-2-methylamino-pyrimidin-4-yl)-piperazin-1-yl]-ethyl}-cyclohexyl)-acetamide], the “D2 Sel. (D2/D3 selectivity, i.e., Ki for D2 receptor divided by Ki for D3 receptor)” value in data set [1] is on record as 22. In addition, the ED50 in data set [2] was 0.14 mg/kg. Also, in data set [3], the “TI (therapeutic index - catalepsy MED divided by amphetamine hypermotility ED50)” value came out at 714. For the same compound, the “Catalepsy (MED, mg/kg)” value in data set [3] was found to be 100 mg/kg. In data set [4], the inhibitory constant (Ki) is more than 1000 nM. Besides, the “% inhibition” value in data set [5] (Dose 0.1 mg/kg orally) is given as 36%; in data set [5] (Dose 0.2 mg/kg orally), 58%; in data set [5] (Dose 0.4 mg/kg orally) it was 61%; in data set [5] (Dose 0.8 mg/kg orally) it was 44%.

For `CNc1nc(Cl)c(Cl)c(N2CCN(CC[C@H]3CC[C@H](NC(N)=O)CC3)CC2)n1` [Compound 2, Trans-(4-{2-[4-(5,6-dichloro-2-methylamino-pyrimidin-4-yl)-piperazin-1-yl]-ethyl}-cyclohexyl)-urea], in data set [1], the “D2 Sel. (D2/D3 selectivity, i.e., Ki for D2 receptor divided by Ki for D3 receptor)” value is 27. The inhibitory constant (Ki) in data set [1] was 15 to 50 nM; in data set [6], 1 to 3 nM; in data set [4], more than 1000 nM.

For `CCNc1nc(Cl)c(Cl)c(N2CCN(CC[C@H]3CC[C@H](NC(C)=O)CC3)CC2)n1` [Compound 6, trans-N-(4-{2-[4-(5,6-dichloro-2-ethylamino-pyrimidin-4-yl)-piperazin-1-yl]-ethyl}-cyclohexyl)-acetamide], the “D2 Sel. (D2/D3 selectivity, i.e., Ki for D2 receptor divided by Ki for D3 receptor)” value in data set [1] is given as 23. Also, the Ki is 15 to 50 nM in data set [1], 1 to 3 nM in data set [6] and more than 1000 nM in data set [4].

`CNc1nc(Cl)c(Cl)c(N2CCN(CC[C@H]3CC[C@H](NC(=O)N4CCOCC4)CC3)CC2)n1` [Compound 7, trans-morpholine-4-carboxylic acid (4-{2-[4-(5,6-dichloro-2-methylamino-pyrimidin-4-yl)-piperazin-1-yl]-ethyl}-cyclohexyl)-amide]: the Ki was 1 to 3 nM in data set [6] and more than 1000 nM in data set [4].

In the case of `CNc1nc(Cl)c(Cl)c(N2CCN(CCC3CCC(NC(=O)N(C)C)CC3)CC2)n1` (stereo not drawn) [Compound 8, trans-3-(4-{2-[4-(5,6-dichloro-2-methylamino-pyrimidin-4-yl)-piperazin-1-yl]-ethyl}-cyclohexyl-1,1-dimethyl-urea], the “D2 Sel. (D2/D3 selectivity, i.e., Ki for D2 receptor divided by Ki for D3 receptor)” value in data set [1] came out at 7. The results for the Ki in data set [1], in data set [6] and in data set [4] were 15 to 50 nM, 1 to 3 nM and more than 1000 nM, respectively. Moreover, the ED50 in data set [2] was determined as 0.14 mg/kg. The “TI (therapeutic index - catalepsy MED divided by amphetamine hypermotility ED50)” value in data set [3] is listed as more than 179. Moreover, the “Catalepsy (MED, mg/kg)” value in data set [3] was more than 25 mg/kg. Besides, the “% inhibition” value in data set [5] (Dose 0.025 mg/kg orally) stood at 38%; in data set [5] (Dose 0.05 mg/kg orally) it was 65%; in data set [5] (Dose 1 mg/kg orally) it was 31%.

`CCNC(=O)N[C@H]1CC[C@H](CCN2CCN(c3nc(NC)nc(Cl)c3Cl)CC2)CC1` [Compound 10, Trans-1-(4-{2-[4-(5,6-dichloro-2-methylamino-pyrimidin-4-yl)-piperazin-1-yl]-ethyl}-cyclohexyl)-3-ethyl-urea]: in data set [1], the “D2 Sel. (D2/D3 selectivity, i.e., Ki for D2 receptor divided by Ki for D3 receptor)” value was 17. Moreover, the inhibition constant Ki in data set [1] was 5 to 15 nM; in data set [6], less than 1 nM; in data set [4], more than 1000 nM.

Take `CCC(=O)NC1CCC(CCN2CCN(c3nc(NC)nc(Cl)c3Cl)CC2)CC1` (stereo not drawn) [Compound 11, trans-N-(4-{2-[4-(5,6-dichloro-2-methylamino-pyrimidin-4-yl)-piperazin-1-yl]-ethyl}-cyclohexyl-propionamide]: the “D2 Sel. (D2/D3 selectivity, i.e., Ki for D2 receptor divided by Ki for D3 receptor)” value in data set [1] is given as 43. Also, the Ki in data set [1] was 5 to 15 nM; in data set [6] it was less than 1 nM; in data set [4] it was more than 1000 nM.

Take `Cc1cc2c(s1)Nc1ccccc1N=C2N1CCN(C)CC1` [Olanzapine, reference compound]: the ED50 in data set [2] is 1.8 mg/kg. Besides, the “% inhibition” value is reported as -12% in data set [5] (Dose 1 mg/kg orally) and -49% in data set [5] (Dose 3 mg/kg orally).

Turning to `Cc1nc2n(c(=O)c1CCN1CCC(c3noc4cc(F)ccc34)CC1)CCCC2` [Risperidone, reference compound], in data set [2], the ED50 was determined as 0.15 mg/kg. In data set [4] (selectivity column under α-1), the “α-1 Sel.” value turned out to be 0.07. Also, the “% inhibition” value in data set [5] (Dose 0.5 mg/kg orally) was -15%.
